Experimental data reported in ChEMBL document CHEMBL1151947, “Synthesis, potency, and in vivo evaluation of 2-piperazin-1-ylquinoline analogues as dual serotonin reuptake inhibitors and serotonin 5-HT1A receptor antagonists” (J Med Chem, 2009).

How the values were obtained:
Cytochrome P450 2A6 = target: T1, Cytochrome P450 2A6 (Homo sapiens, UniProt P11509); test: Inhibition of CYP2A6 in human liver microsomes upto 100 uM; type: ADME, Microsome
T1 sequence (P11509 whole entry): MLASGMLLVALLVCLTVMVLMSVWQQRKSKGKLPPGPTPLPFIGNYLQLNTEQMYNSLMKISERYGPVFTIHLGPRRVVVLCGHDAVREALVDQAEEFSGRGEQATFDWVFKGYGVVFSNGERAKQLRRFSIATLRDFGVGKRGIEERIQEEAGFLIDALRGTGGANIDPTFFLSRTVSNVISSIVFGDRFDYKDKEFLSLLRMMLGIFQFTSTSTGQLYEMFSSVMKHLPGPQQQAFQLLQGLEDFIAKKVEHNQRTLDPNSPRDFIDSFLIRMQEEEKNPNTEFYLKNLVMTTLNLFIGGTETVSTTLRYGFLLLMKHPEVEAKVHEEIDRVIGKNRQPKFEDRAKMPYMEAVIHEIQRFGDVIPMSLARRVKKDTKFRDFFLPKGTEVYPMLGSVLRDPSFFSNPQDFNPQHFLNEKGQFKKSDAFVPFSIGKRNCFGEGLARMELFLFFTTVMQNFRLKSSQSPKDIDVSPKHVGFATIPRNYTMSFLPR

[1] = AUC in rat at 10 mg/kg, po; type: ADME, organism-based; set-up: dose 10 mg/kg, route oral; conditions: plasma
[2] = Elimination half life in rat at 3 mg/kg, po; type: ADME, organism-based; set-up: dose 3 mg/kg, route oral; conditions: in vivo, read-out: beta t1/2 (converted)
Rattus norvegicus [3] = test: Antidepressant activity in po dosed rat assessed as increase in extracellular 5HT level in dorsal lateral frontal cortex after 3 hrs by microdialysis assay; type: functional, organism-based
Rattus norvegicus [4] = test: Initial plasma concentration in rat at 1 mg/kg, iv; type: ADME, organism-based; set-up: dose 1 mg/kg, route intravenous; conditions: in vivo
D(3) dopamine receptor = D(3) dopamine receptor (Homo sapiens, UniProt P35462); test: Displacement of [3H]spiperone from human dopamine D3 receptor expressed in CHO cells; type: cell-based
Cytochrome P450 3A4 = Cytochrome P450 3A4 (Homo sapiens, UniProt P08684); test: Inhibition of CYP3A4 in human liver microsomes; type: ADME, Microsome
Rattus norvegicus [5] = test: Antidepressant activity in rat assessed as increase in extracellular 5HT level in dorsal lateral frontal cortex at 30 mg/kg, po after 3 hrs by microdialysis assay relative to basal level; type: functional
[6] = Elimination half life in rat at 10 mg/kg, po; type: ADME, organism-based; set-up: dose 10 mg/kg, route oral; conditions: in vivo, read-out: beta t1/2 (converted)
Rattus norvegicus [7] = test: Antidepressant like activity in sc dosed rat resident-intruder model assessed as reduction of aggressive behavior level administered 30 mins prior to test; type: functional
[8] = target: Sodium-dependent serotonin transporter (Rattus norvegicus, UniProt P31652)
Description: Displacement of [3H]paroxetine from 5HT transporter in rat cortical membrane

[9] = target: T2, Adrenergic receptor alpha-1 (Rattus norvegicus, UniProt P15823+P23944+P43140); test: Displacement of [3H]prazosin from alpha1 adrenergic receptor in rat cortical membranes; type: cell membranes, Membrane
T2 sequence (P15823 whole entry): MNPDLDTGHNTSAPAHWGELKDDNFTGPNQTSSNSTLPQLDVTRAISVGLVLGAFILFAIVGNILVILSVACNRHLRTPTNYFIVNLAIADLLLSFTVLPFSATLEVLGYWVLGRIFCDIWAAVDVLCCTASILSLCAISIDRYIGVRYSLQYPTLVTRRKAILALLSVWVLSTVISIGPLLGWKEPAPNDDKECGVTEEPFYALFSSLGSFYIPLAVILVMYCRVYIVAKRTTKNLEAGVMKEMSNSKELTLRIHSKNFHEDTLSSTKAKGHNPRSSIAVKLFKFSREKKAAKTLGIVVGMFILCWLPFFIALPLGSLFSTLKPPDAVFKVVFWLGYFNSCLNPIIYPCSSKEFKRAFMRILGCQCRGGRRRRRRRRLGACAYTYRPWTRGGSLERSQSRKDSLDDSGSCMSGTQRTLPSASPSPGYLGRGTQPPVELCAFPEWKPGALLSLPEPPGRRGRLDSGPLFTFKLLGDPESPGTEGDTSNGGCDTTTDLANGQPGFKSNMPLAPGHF
T2 sequence (P23944 whole entry): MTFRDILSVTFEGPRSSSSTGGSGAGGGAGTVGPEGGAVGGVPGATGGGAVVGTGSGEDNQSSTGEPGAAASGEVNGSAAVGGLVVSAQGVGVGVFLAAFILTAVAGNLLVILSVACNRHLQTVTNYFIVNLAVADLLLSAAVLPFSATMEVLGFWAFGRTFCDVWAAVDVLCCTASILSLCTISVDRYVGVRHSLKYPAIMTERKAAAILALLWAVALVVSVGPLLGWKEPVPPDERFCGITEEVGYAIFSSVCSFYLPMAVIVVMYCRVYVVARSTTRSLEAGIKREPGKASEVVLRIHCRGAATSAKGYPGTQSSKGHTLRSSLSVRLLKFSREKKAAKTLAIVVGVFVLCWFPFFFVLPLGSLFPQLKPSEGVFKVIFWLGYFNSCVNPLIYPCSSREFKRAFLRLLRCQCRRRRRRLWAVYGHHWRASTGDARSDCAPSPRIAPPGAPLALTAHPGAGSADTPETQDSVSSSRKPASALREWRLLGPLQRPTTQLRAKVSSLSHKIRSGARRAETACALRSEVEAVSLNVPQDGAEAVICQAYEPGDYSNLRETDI
T2 sequence (P43140 whole entry): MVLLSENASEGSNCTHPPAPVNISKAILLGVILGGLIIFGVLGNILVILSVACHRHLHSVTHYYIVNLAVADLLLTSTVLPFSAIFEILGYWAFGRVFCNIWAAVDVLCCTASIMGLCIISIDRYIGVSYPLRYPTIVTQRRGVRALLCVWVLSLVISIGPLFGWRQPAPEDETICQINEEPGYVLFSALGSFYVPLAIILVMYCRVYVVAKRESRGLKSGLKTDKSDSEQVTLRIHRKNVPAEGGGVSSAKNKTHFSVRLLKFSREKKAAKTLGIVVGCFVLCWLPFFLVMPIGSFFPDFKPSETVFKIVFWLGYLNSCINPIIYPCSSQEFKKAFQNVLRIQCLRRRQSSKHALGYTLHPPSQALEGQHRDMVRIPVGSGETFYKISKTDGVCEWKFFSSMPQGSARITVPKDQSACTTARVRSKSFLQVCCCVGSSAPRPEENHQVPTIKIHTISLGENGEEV

[10] = target: T3, 5-hydroxytryptamine receptor 1A (Homo sapiens, UniProt P08908)
T3 sequence (P08908 whole entry): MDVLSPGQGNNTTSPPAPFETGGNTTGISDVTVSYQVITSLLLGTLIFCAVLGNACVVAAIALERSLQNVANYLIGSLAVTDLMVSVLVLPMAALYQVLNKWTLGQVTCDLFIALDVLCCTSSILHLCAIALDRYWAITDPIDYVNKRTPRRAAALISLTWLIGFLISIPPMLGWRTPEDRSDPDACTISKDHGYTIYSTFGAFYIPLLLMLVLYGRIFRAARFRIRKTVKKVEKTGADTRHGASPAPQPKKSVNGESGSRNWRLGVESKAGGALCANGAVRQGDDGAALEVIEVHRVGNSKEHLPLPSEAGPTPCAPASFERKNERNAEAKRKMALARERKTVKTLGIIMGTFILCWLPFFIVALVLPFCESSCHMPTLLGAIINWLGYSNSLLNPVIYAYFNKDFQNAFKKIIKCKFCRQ
Description: Antagonist activity at human 5HT1A receptor expressed in CHO cells assessed as stimulation of [35S]GTPgammaS binding

Cytochrome P450 3A4, sequence (P08684 whole entry): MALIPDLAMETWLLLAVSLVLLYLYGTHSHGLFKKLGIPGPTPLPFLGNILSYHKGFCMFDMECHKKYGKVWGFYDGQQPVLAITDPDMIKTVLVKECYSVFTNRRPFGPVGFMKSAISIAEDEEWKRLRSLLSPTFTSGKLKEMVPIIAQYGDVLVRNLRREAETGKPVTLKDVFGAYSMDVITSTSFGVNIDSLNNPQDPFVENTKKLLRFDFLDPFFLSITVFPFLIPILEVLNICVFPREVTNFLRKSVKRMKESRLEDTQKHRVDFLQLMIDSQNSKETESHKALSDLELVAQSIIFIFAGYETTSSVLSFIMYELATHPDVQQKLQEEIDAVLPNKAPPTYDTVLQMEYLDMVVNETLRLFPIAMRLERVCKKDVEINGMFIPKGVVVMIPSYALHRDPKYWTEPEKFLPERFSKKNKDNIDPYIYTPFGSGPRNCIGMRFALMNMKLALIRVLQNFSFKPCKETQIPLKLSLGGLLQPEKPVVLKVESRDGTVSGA
D(3) dopamine receptor, sequence (P35462 whole entry): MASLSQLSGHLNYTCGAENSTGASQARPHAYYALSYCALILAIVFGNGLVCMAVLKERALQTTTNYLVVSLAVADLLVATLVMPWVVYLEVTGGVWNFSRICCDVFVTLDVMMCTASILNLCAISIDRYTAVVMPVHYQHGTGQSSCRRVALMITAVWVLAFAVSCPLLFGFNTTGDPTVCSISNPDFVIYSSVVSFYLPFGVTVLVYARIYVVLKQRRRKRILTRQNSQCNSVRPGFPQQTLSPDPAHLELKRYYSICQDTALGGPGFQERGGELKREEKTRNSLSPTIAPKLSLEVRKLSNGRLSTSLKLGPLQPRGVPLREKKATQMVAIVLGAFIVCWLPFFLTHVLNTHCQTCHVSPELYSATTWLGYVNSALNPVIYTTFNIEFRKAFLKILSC
Sodium-dependent serotonin transporter, sequence (P31652 whole entry): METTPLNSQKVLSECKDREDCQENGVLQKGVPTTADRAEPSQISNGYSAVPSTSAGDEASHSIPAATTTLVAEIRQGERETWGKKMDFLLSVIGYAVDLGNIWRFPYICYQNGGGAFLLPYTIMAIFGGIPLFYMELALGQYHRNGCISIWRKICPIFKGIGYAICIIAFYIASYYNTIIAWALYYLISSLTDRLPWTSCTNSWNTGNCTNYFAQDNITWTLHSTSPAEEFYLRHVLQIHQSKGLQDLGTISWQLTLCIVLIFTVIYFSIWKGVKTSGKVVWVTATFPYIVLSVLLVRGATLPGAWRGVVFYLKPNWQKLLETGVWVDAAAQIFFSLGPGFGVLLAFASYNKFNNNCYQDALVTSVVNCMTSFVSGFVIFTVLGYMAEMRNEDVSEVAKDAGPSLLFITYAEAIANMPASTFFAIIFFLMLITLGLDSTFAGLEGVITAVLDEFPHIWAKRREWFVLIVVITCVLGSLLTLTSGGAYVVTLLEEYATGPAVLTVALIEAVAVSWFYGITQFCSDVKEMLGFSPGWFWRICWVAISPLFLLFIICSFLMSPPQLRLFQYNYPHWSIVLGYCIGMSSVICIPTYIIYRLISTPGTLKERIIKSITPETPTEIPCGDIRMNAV

inhibition (INH) (Cytochrome P450 2A6): Not Active
AUC [1]: 4620 ng·h/mL
half-life [2]: 3.8 h
C0 (Rattus norvegicus [4]): 903 ng/mL
Ki (D(3) dopamine receptor): 1320 nM
IC50 (Cytochrome P450 3A4): 10000 nM
half-life [6]: 3.8 h
Ki [8]: 13.8 nM
Ki [9]: 1110 nM
IC50 [10]: 102 nM
SMILES: Cc1ccc2c3c(ccc2n1)OC[C@H](CN1CCN(c2ccc4cc(C#N)ccc4n2)CC1)O3
Activity (Rattus norvegicus [3]): Dose-dependent effect
Activity (Rattus norvegicus [5]): 71%
Activity (Rattus norvegicus [7]): Dose-dependent effect
ED50 (Rattus norvegicus [7]; read-out: ID50 (the source's name)): 12.5 mg/kg
